Reference: patent US20080287430A1, “Furan Compounds Useful As Ep1 Receptor Antagonists” (priority 2005, published 2008)
Where a name gives a salt, the structure may show the parent alone.

Tests used:
[1] = tested on: rat model of chronic constriction injury; conditions: Anesthesia and Analgesia 2001, 93, 1012-7; cited from earlier work
[2] = tested on: rodent model of post-operative pain; conditions: Anesthesia and Analgesia 2001, 92, 233-238; cited from earlier work
human EP1 receptor [3] = target: T1, human EP1 receptor (Homo sapiens, UniProt P34995); assay: Binding assay for the human prostanoid EP1 receptor (competition with [3H]-PGE2); conditions: binding to human EP1 receptor, [3H]-PGE2 competition, CHO-K1 cell membranes; averages of a number of experiments; read-out: pIC50 value (converted)
T1 construct: expressed in transfected cells; host or cells: CHO-K1
T1 sequence (P34995 1-402): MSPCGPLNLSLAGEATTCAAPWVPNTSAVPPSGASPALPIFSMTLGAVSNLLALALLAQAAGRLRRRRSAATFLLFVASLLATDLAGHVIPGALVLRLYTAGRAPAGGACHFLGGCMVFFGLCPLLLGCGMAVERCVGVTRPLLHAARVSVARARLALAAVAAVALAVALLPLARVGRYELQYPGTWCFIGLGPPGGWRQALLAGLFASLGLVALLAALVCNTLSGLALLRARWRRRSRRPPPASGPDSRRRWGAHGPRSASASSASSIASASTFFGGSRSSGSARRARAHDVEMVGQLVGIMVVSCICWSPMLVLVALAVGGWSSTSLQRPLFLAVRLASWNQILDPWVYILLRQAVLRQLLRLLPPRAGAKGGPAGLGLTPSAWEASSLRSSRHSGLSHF
Method: Competition assay using [^3H]-PGE2.
Compound potencies are determined using a radioligand binding assay. In this assay compound potencies are determined from their ability to compete with tritiated prostaglandin E2 ([^3H]-PGE2) for binding to the human EP1 receptor.
This assay utilises Chinese hamster ovary-K1 (CHO-K1) cells into which a stable vector containing the EP1 cDNA has previously been transfected. Cells are cultured in suitable flasks containing culture medium such as DMEM:F-12 supplemented with 10% v/v foetal calf serum, 2 mM L-glutamine, 0.25 mg/ml geneticin, 10 μg/ml puromycin and 10 μM indomethacin.
Cells are detached from the culture flasks by incubation in calcium and magnesium free phosphate buffered saline containing 1 mM disodium ethylenediaminetetraacetic acid (Na2EDTA) and 10 μM indomethacin for 5 min. The cells are isolated by centrifugation at 250×g for 5 mins and suspended in an ice cold buffer such as 50 mM Tris, 1 mM Na2EDTA, 140 mM NaCl, 10 μM indomethacin (pH 7.4). The cells are homogenised using a Polytron tissue disrupter (2×10 s burst at full setting), centrifuged at 48,000×g for 20 mins and the pellet containing the membrane fraction is washed (optional) three times by suspension and centrifugation at 48,000×g for 20 mins. The final membrane pellet is suspended in an assay buffer such as 10 mM 2-[N-morpholino]ethanesulphonic acid, 1 mM Na2EDTA, 10 mM MgCl2 (pH 6). Aliquots are frozen at −80° C. until required.
For the binding assay the cell membranes, competing compounds and [^3H]-PGE2 (3 nM final assay concentration) are incubated in a final volume of 100 μl for 30 min at 30° C. All reagents are prepared in assay buffer. Reactions are terminated by rapid vacuum filtration over GF/B filters using a Brandell cell harvester. The filters are washed with ice cold assay buffer, dried and the radioactivity retained on the filters is measured by liquid scintillation counting in Packard TopCount scintillation counter.
The data are analysed using non linear curve fitting techniques to determine the concentration of compound producing 50% inhibition of specific binding (IC50).

human EP1 receptor [4] = target: T1, human EP1 receptor; assay: human EP1 calcium mobilisation assay; assay type: cell-based; conditions: human EP1, PGE2-induced calcium mobilisation in CHO-K1 cells; free bases or sodium salts; averages of a number of experiments; read-out: functional pKi value (converted)
Outline: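 CHO-K1 cells stably expressing human EP1, loaded with Fluo-4 after 24 h at 37° C; compounds added before PGE2 challenge. Inhibition of PGE2-induced [Ca2+]i rise read by FLIPR fluorescence; pIC50 from curve fitting of half-maximal inhibition.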

gastric lesions in rats = conditions: lesions induced by taurocholate acid, aspirin or indomethacin, J Pharmacol Exp Ther 1992, 263(1), 374-380; cited from earlier work

SMILES	IC50 (human EP1 receptor [3])	Ki (human EP1 receptor [4])	hyperalgesia and allodynia [1]	mechanical hyperalgesia [2]	gastric lesions (gastric lesions in rats)
Cc1cc(Cl)ccc1S(=O)(=O)NC[C@H]1C2CCC(CC2)[C@@H]1/C=C\CCCC(=O)O [ONO-8711]	–	–	reduces hyperalgesia and allodynia	inhibits mechanical hyperalgesia	–
O=C(O)Cc1ccc(CCNS(=O)(=O)c2ccc(Cl)cc2)cc1 [BM 13505]	–	–	–	–	inhibit gastric lesions
CC(C)COc1ccc(Cl)cc1Cc1ccc(-c2nc3cnccc3[nH]2)o1 [Example 117, 2-[5-({5-Chloro-2-[(2-methylpropyl)oxy]phenyl}-methyl)-2-furanyl]-1H-imidazo[4,5-c]pyridine]	≤ 10 nM	< 1000 nM	–	–	–
Cc1cc(C(=O)O)oc1Cc1cc(Cl)ccc1OCc1ccccc1 [Example 15, Sodium 5-({5-chloro-2-[(phenylmethyl)oxy]phenyl}methyl)-4-methyl-2-furancarboxylate]	≤ 10 nM	≤ 10 nM	–	–	–
COc1nccc2[nH]c(-c3ccc(Cc4cc(Cl)ccc4OCC(C)C)o3)nc12 [Example 104, 2-[5-({5-Chloro-2-[(2-methylpropyl)oxy]-phenyl}methyl)-2-furanyl]-4-(methyloxy)-1H-imidazo[4,5-c]pyridine]	≤ 10 nM	≤ 10 nM	–	–	–
O=C(O)c1ccc(Cc2cc(Cl)ccc2OCc2ccc(F)cc2F)o1 [Example 19, Sodium 5-[(5-chloro-2-{[(2,4-difluorophenyl)methyl]oxy}phenyl)methyl]-2-furancarboxylate]	≤ 10 nM	< 1000 nM	–	–	–
O=C(O)c1ccc(Cc2cc(Cl)ccc2OC2CCCC2)o1 [Example 5, Sodium 5-{[5-chloro-2-(cyclopentyloxy)phenyl]methyl}-2-furancarboxylate]	≤ 10 nM	≤ 10 nM	–	–	–

More lines, main results first:

IC50 (human EP1 receptor [3])	Ki (human EP1 receptor [4])	SMILES	hyperalgesia and allodynia [1]	mechanical hyperalgesia [2]	gastric lesions (gastric lesions in rats)
≤ 10 nM	< 1000 nM	CCN1CCN(Cc2ccc3nc(-c4ccc(Cc5cc(Cl)ccc5OCC(C)C)o4)[nH]c3c2)CC1 [Example 146, 2-[5-({5-Chloro-2-[(2-methylpropyl)oxy]-phenyl}methyl)-2-furanyl]-5-[(4-ethyl-1-piperazinyl)methyl]-1H-benzimidazoletrihydrochloride]	–	–	–
≤ 10 nM	< 1000 nM	CC(C)COc1ccc(Cl)cc1Cc1ccc(-c2nc3ccc(CN4CCCC4)cc3[nH]2)o1 [Example 143, 2-[5-({5-Chloro-2-[(2-methylpropyl)oxy]-phenyl}methyl)-2-furanyl]-5-(1-pyrrolidinylmethyl)-1H-benzimidazoledihydrochloride]	–	–	–
≤ 10 nM	< 1000 nM	COCCN(C)Cc1ccc2nc(-c3ccc(Cc4cc(Cl)ccc4OCC(C)C)o3)[nH]c2c1 [Example 148, N-({2-[5-({5-Chloro-2-[(2-methylpropyl)oxy]-phenyl}methyl)-2-furanyl]-1H-benzimidazol-5-yl}methyl)-N-methyl-2-(methyloxy)ethanaminedihydrochloride]	–	–	–
≤ 10 nM	> 1000 nM	CC(C)COc1ccc(Cl)cc1Cc1ccc(-c2nc3nc(Br)cnc3[nH]2)o1 [Example 136, 5-Bromo-2-[5-({5-chloro-2-[(2-methylpropyl)oxy]phenyl}methyl)-2-furanyl]-1H-imidazo[4,5-b]pyrazine hydrochloride]	–	–	–
≤ 10 nM	< 1000 nM	CC(C)COc1ccc(Cl)cc1Cc1ccc(-c2nc3ccc(CCO)cc3[nH]2)o1 [Example 115, 2-{2-[5-({5-Chloro-2-[(2-methylpropyl)oxy]-phenyl}methyl)-2-furanyl]-1H-benzimidazol-5-yl}ethanolhydrochloride]	–	–	–
≤ 10 nM	< 1000 nM	CC(C)COc1ccc(Cl)cc1Cc1ccc(-c2nc3ccc(CNCCO)cc3[nH]2)o1 [Example 156, 2-[({2-[5-({5-Chloro-2-[(2-methylpropyl)oxy]-phenyl}methyl)-2-furanyl]-1H-benzimidazol-5-yl}methyl)amino]-ethanol]	–	–	–
≤ 10 nM	< 1000 nM	CNCc1ccc2[nH]c(-c3ccc(Cc4cc(Cl)ccc4OCC(C)C)o3)nc2c1 [Example 166, ({2-[5-({5-Chloro-2-[(2-methylpropyl)oxy]phenyl}methyl)-2-furanyl]-1H-benzimidazol-5-yl}methyl)methylamine dihydrochloride]	–	–	–
